Test results from patent US11980636B2, “Treatment of hematological disorders” (Jazz Pharmaceuticals Ireland Limited, priority 2020, dated 2024).
Read-outs that look alike come from different tables or passages of the source. One block for each molecule: values may come before it.

Tests used:
CCRF-CEM cells = assay: CellTiter-Glo cell viability, 72 hours; format: cell-based; settings: Homo sapiens, read-out: IC50 values
Procedure: (§1) AML cell lines used were: HL-60 (ATCC), SKM-1 (Sekisui XenoTech) and KG-1 (ATCC). Acute Lymphoid Leukemia (ALL) cell lines used were: CCRF-CEM (ATCC), MOLT-3 (ATCC), and Jurkat E6-1 (ATCC). […] After 24 hours, cells were dosed with CPX-351, venetoclax, azacitidine, decitabine, and/or cytarabine. CPX-351 and cytarabine were each dosed in a titration starting at 50 μM (for CPX-351, this was measured by its cytarabine content), with 8 additional serial dilutions of 5× each and a final group with no treatment. […] For the combination treatment of CPX-351 and venetoclax, the same titrations were used as in single-agent treatment. About 72 hours after dosing, cell viability was measured by CellTiter-Glo assay (Promega) according to manufacturer instructions; luminescence was measured and IC50 values were estimated by Cytation Multi-Mode reader (BioTek).

MOLT-3 cells = assay: CellTiter-Glo cell viability, 72 hours; format: cell-based; settings: Homo sapiens
Procedure: as §1

Jurkat E6-1 cells = assay: CellTiter-Glo cell viability, 72 hours; format: cell-based; settings: Homo sapiens
Procedure: as §1

HL-60 cells = assay: CellTiter-Glo cell viability, 72 hours; format: cell-based; settings: Homo sapiens
Procedure: as §1

SKM-1 cells = assay: CellTiter-Glo cell viability, 72 hours; format: cell-based; settings: Homo sapiens
Procedure: as §1

KG-1 cells = assay: CellTiter-Glo cell viability, 72 hours; format: cell-based; settings: Homo sapiens
Procedure: as §1

[1] = for Vp (Vp2), peripheral volume of distribution: population mean coefficient at BSA 1.95 (daunorubicin dose 86 mg), following CPX-351; for CLd (CLd2), distribution clearance: population mean coefficient at BSA 1.95, following CPX-351
clinical = settings: human, in vivo, intravenous; for Vd: 195 mg
GCSF receptor = molecular target: T1, GCSF receptor (Homo sapiens, UniProt Q99062); settings: population mean, cited from earlier work; for Kd: read-out: KD, equilibrium dissociation constant for GCSF and GCSF receptor
T1 sequence (Q99062 25-836): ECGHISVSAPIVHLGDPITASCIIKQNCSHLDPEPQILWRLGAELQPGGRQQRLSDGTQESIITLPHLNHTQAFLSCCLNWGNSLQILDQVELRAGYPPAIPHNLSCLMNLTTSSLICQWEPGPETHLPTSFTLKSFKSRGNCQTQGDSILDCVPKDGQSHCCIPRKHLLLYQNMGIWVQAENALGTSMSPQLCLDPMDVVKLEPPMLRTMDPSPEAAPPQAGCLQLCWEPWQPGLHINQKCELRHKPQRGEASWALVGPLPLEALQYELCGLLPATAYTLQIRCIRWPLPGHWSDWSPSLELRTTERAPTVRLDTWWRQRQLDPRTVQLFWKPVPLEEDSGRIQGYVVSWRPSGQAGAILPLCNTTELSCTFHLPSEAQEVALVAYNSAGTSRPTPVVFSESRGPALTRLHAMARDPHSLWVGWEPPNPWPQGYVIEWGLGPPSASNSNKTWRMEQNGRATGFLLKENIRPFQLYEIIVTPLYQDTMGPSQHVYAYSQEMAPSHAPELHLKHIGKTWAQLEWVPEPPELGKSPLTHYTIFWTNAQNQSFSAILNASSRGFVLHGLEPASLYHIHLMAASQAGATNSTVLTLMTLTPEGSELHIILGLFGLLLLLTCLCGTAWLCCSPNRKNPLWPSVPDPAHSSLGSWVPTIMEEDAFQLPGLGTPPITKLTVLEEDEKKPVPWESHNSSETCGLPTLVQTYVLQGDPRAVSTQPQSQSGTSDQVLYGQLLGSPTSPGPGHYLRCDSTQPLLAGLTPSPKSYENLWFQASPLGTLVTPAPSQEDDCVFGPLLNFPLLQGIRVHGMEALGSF

[2] = in vivo; cited from earlier work
[3] = ALL, CPX-351 by cytarabine content
[4] = MOLT-3, ALL, CPX-351 by cytarabine content, read-out: IC50 values
[5] = Jurkat E6-1, ALL, CPX-351 by cytarabine content, read-out: IC50 values
[6] = HL-60, HL60, AML, CPX-351 by cytarabine content, read-out: IC50 values
[7] = SKM-1, AML, CPX-351 by cytarabine content, read-out: IC50 values
[8] = KG-1, AML, CPX-351 by cytarabine content, read-out: IC50 values

IC50 (CCRF-CEM cells; [3]): 1580 nM
IC50 (MOLT-3 cells; [4]): 4030 nM
IC50 (Jurkat E6-1 cells; [5]): 980 nM
IC50 (HL-60 cells; [6]): 1420 nM
IC50 (SKM-1 cells; [7]): 420 nM
Molecule: Nc1ncn([C@@H]2O[C@H](CO)[C@@H](O)[C@H]2O)c(=O)n1 [Azacitidine]
IC50 (KG-1 cells; [8]): 4000 nM

Vp (Vp2), peripheral volume of distribution [1]: 0.214 · (BSA/1.95)^1 L
CLd (CLd2), distribution clearance [1]: 0.00646 · (BSA/1.95)^1 L/h
clearance (clinical): 1.77 mL/min
Vd (clinical): 5.12 L
IC50 (CCRF-CEM cells; [3]): 30 nM
IC50 (MOLT-3 cells; [4]): 80 nM
IC50 (Jurkat E6-1 cells; [5]): 40 nM
IC50 (HL-60 cells; [6]): 850 nM
IC50 (SKM-1 cells; [7]): 540 nM
Molecule: Nc1ccn([C@@H]2O[C@H](CO)[C@@H](O)[C@@H]2O)c(=O)n1 [Cytarabine, 1-β-D-arabinofuranosylcytosine]
IC50 (KG-1 cells; [8]): 240 nM

Vp (Vp2), peripheral volume of distribution [1]: 0.523 · (BSA/1.95)^1 · L
CLd (CLd2), distribution clearance [1]: 0.0258 · (BSA/1.95)^1 L/h
clearance (clinical): 2.42 mL/min
Vd (clinical): 4.34 L
Molecule: COc1cccc2c1C(=O)c1c(O)c3c(c(O)c1C2=O)C[C@@](O)(C(C)=O)C[C@@H]3O[C@H]1C[C@H](N)[C@H](O)[C@H](C)O1 [Daunorubicin]

Molecule: Nc1ncn([C@H]2C[C@H](O)[C@@H](CO)O2)c(=O)n1 [Decitabine]
IC50 (CCRF-CEM cells): 40 nM
IC50 (MOLT-3 cells; MOLT-3, read-out: IC50 values): 230 nM
IC50 (Jurkat E6-1 cells; Jurkat E6.1, read-out: IC50 values): 100 nM
IC50 (HL-60 cells; HL-60, read-out: IC50 values): 820 nM
IC50 (SKM-1 cells; SKM-1, read-out: IC50 values): 240 nM
IC50 (KG-1 cells; KG-1, read-out: IC50 values): 360 nM

IC50 (CCRF-CEM cells; [3]): 2800 nM
IC50 (MOLT-3 cells; [4]): 1000 nM
IC50 (Jurkat E6-1 cells; [5]): 3500 nM
IC50 (HL-60 cells; [6]): 50 nM
IC50 (SKM-1 cells; [7]): 1500 nM
Molecule: CC1(C)CCC(CN2CCN(c3ccc(C(=O)NS(=O)(=O)c4ccc(NCC5CCOCC5)c([N+](=O)[O-])c4)c(Oc4cnc5[nH]ccc5c4)c3)CC2)=C(c2ccc(Cl)cc2)C1 [Venetoclax]
IC50 (KG-1 cells; [8]): 2100 nM

B1: Filgrastim: exogenous GCSF agent (protein, UniProt P09919 31-207, looked up)
Granulocyte …: TPLGPASSLPQSFLLKCLEQVRKIQGDGAALQEKLVSECATYKLCHPEELVLLGHSLGIPWAPLSSCPSQALQLAGCLSQLHSGLFLYQGLLQALEGISPELGPTLDTLQLDVADFATTIWQQMEELGMAPALQPTQGAMPAFASAFQRRAGGVLVASHLQSFLEVSYRVLRHLAQP
modifications: filgrastim, N-terminal Met
notes: exogenous GCSF agent
kint, first-order rate constant for internalization of GCSF receptor complexed with filgrastim or pegfilgrastim (GCSF receptor): 0.113 h⁻¹
Kd (GCSF receptor): 0.0237 nM
CL, clearance [2]: 0.833 · (WTKG/70)^0.641 L/h
D2, duration of the zero-order absorption process [2]: 6.6 h
F1, bioavailability of first-order absorption process [2]: 0.105
F2, bioavailability of zero-order absorption process [2]: 0.586
Vc, central volume of distribution [2]: 3.12 · (WTKG/70)^0.943 L
ka, first-order absorption rate constant [2]: 0.403 h⁻¹

B2: Pegfilgrastim: exogenous GCSF agent (protein, UniProt P09919 31-207, looked up)
Granulocyte …: B1 Granulocyte …
modifications: pegfilgrastim; PEGylated, N-terminal Met
notes: exogenous GCSF agent
kint, first-order rate constant for internalization of GCSF receptor complexed with filgrastim or pegfilgrastim (GCSF receptor): 0.113 h⁻¹
Kd (GCSF receptor): 0.0959 nM
F1, bioavailability of first-order absorption process [2]: 0.646
Vc, central volume of distribution [2]: 5.76 · (WTKG/70)^0.943 L
clearance [2]: 6.03 mL/min
ka, first-order absorption rate constant [2]: 0.0188 h⁻¹
